Data as given in US20120179381A1, “TOXICITY SCREENING METHODS” (priority 2010, published 2012).
Blank lines part the entries; values can stand above or below the molecule they belong to.

Legend:
[1] = system: primary hepatocytes in sandwich culture; assay: Liver specific toxicity assays in primary hepatocytes in sandwich culture (GSH, mitochondria, oxidative stress, GGT); type: cell-based; conditions: FIG. 11
Experimental: (§1) Cell Culture: Primary hepatocytes in sandwich culture were obtained freshly-plated from outside vendors and used to assess general liver toxicity. Hepatocytes were plated in 24-well or 96-well microplates at a density of 400 K/well and 100 K/well, respectively, and kept at 37° C., 5% CO2 in a humidified incubator. Sandwich culture plates have a collagen substratum with Matrigel overlay, optimal growth conditions for hepatocytes with intact and functional bile canalicular networks. After 3 days in culture, cells were shipped to the inventor. Upon receipt, medium was replaced with fresh Williams E medium (Sigma) containing 10% bovine serum (Invitrogen), and cells were acclimated overnight prior to treatment (Hewitt et al. 2007).
(§2) Cytotoxicity: ATP was measured using an ATP-Lite kit from Perkin Elmer according to the manufacturer's instructions. Membrane integrity was monitored by determining the presence of α-Glutathione S-transferase (α-GST), released into the culture medium using an ELISA assay (Argutus Medical). Intracellular glutathione levels were determined essentially as described by Griffith (1980) with modifications. Cell mass in each well was measured with propidium iodide (PI). This specific nucleic acid binding dye fluoresces when intercalated within the nucleic acids. After incubation, the test compound was removed by aspiration of the media and Triton X-100 solution containing propidium iodide was added to permeabilized cells.
8-ISO levels were determined using an ELISA. 8-ISO is a member of a family of eicosanoids produced non-enzymatically by random oxidation of tissue phospholipids by oxygen radicals. Therefore, an increase in 8-ISO is an indirect measure of increased lipid peroxidation (Vacchiano and Tempel, 1994).
γ-Glutamyltransferase (GGT) activity was measured using the Catachem GGT kit with modifications. After completion of exposures, media was removed from the plates and cell and cell supernatants were stored at −80° C. until analyzed.

[2] = biological target: OCT2 (Sus scrofa, UniProt O02713); conditions: Cimetidine at 500 μM or 1 mM; LLC-PK1 cell model; FIG. 4
Experimental: (§3) Cell Culture: Two cell types were used in this Example—primary human renal proximal tubule cells (hRPTCs) and a well characterized porcine renal proximal tubule (LLC-PK1) cell line. The hRPTCs were obtained from Lonza, Clonetics (Walkersville, Md.) and the LLC-PK1 was obtained from ATCC.
(§4) Establishing Transwell Cultures: The hRPTCs were seeded into Corning transwell-COL 24-well tissue culture plates at a density of 7.4×10^4 cells/well. LLC-PK1 cells were seeded into BD 351181 transwell 24-well tissue culture plates at a cell density of 1.65×10^5 cells/well (FIG. 3). On day 6 of incubation, formation of tight-junctions between cells was determined by Lucifer Yellow and Mannitol. The growth medium used with the hRPTCs was modified DMEM/Ham's F-12, and the medium used for LLC-PK1 was DMEM with 10% FBS (Elwi et al. 2009; Morshed and McMartin, 1995).
(§5) Transport Assays: To determine transporter specific activity, several known substrates were selected: TEA (OCT1 and OCT2), Digoxin (OATP4C1), Metformin (OCT2 basolateral and MATE1 apical). LLC-PK1 cells were seeded in BD 351181 24-well tissue culture plates at a cell density of 1.65×10^5 cells/well. After culturing for 6 days, apical and basolateral chambers were washed at room temperature with D-PBS buffer (containing 137 mM NaCl, 3 mM KCl, 8 mM Na2HPO4, 1.5 mM KH2PO4, 1 mM CaCl2, 0.5 mM MgCl2 and 5 mM D-glucose; pH 7.4) then incubated with non-radiolabeled substrate on both apical and basolateral sides for 60 minutes. Media was removed and the cells rinsed with buffer prior to adding the radiolabeled substrate. Radiolabeled substrate (with or without inhibitor) was added to apical or basolateral chambers, and samples were collected from the opposite side at 40 minutes. Cellular uptake was determined by washing the transwell membranes containing the cells twice with ice-cold D-PBS, then transferring the insert with cells to scintillation vials containing 2% Triton X-100. Scintillation was counted using Opti-Flour (Perkin Elmer) and in a Packard Tri-Carb 2100TR liquid scintillation counter.

[3] = biological target: hOCT2 (Homo sapiens, UniProt O15244); conditions: hRPTCs; FIG. 4
Experimental: as §3, §4, §5

[4] = system: primary hepatocytes in sandwich culture; Rat (H4IIE) cells; assay: General cell health / mitochondrial function (ATP) cytotoxicity assays of the liver toxicity screen; type: cell-based; conditions: for IC50: Rattus norvegicus, H4IIE, Table 2, unit inferred
Experimental: as §1
Rat (H4IIE) cells were seeded in flat bottom 96-well plates at a density of 10,000 cells/well in Eagles Minimum Essential Medium (Sigma Chemical) supplemented with 10% bovine serum and 10% calf serum (Invitrogen). Cells were allowed to equilibrate for approximately 48 hours to allow cells to move into a stable growth phase prior to treatment.
as §2

[5] = system: CYP3A; assay: Inhibition of CYP3A; type: in vitro ADME; conditions: Table 2; number or Y/N, unit inferred
[6] = biological target: T1, BSEP (UniProt O95342, species not given); assay: BSEP cell-free transport assay; type: biochemical, Rat or human; conditions: BSEP cell-free transport assay (GenoMembrane); Table 2; number or Y/N for inhibition, unit inferred
T1 construct: rows headed: BSEP
Experimental: (§6) Rat or human BSEP cell-free assay were performed according to GenoMembrane protocol for BSEP transport analysis.

[7] = Table 2; Y/N; cited from earlier work
[8] = system: hRPTC; assay: Cisplatin cytotoxicity in primary human renal proximal tubule cells (ATP, cell number, membrane integrity, GGT); type: cell-based; conditions: FIG. 6, read-out: IC50 for ATP depletion
Experimental: Cytotoxicity: Cell viability was determined by measuring intracellular ATP levels with ATP-Lite from Perkin Elmer according to the manufacturer's instructions. Cell proliferation was determined from bromodeoxyuridine (BrdU) incorporation. Membrane integrity was measured using glutathione S-transferase (GST) as a leakage marker (Argutus). The GST assay was done according to the manufacturer's instructions. Gamma-glutamyl transferase activity (GGT) was measured using the Catachem GGT kit with modifications.

[9] = system: primary hepatocytes in sandwich culture; Rat (H4IIE) cells; assay: Intracellular glutathione (GSH) levels, liver toxicity screen; type: cell-based; conditions: FIG. 12, read-out: depleting intracellular glutathione levels, IC50
Experimental: as §1, with “2007). […]” for “2007).”
Cytotoxicity: ATP was measured using an ATP-Lite kit from Perkin Elmer according to the manufacturer's instructions. Membrane integrity was monitored by determining the presence of α-Glutathione S-transferase (α-GST), released into the culture medium using an ELISA assay (Argutus Medical). Intracellular glutathione levels were determined essentially as described by Griffith (1980) with modifications. Cell mass in each well was measured with propidium iodide (PI). […]

[10] = system: BSEP; assay: BSEP cell-free transport assay; type: biochemical, Rat or human; conditions: Table 2; number or Y/N for inhibition, unit not given
Experimental: as §6

OCT2, sequence (O02713 whole entry): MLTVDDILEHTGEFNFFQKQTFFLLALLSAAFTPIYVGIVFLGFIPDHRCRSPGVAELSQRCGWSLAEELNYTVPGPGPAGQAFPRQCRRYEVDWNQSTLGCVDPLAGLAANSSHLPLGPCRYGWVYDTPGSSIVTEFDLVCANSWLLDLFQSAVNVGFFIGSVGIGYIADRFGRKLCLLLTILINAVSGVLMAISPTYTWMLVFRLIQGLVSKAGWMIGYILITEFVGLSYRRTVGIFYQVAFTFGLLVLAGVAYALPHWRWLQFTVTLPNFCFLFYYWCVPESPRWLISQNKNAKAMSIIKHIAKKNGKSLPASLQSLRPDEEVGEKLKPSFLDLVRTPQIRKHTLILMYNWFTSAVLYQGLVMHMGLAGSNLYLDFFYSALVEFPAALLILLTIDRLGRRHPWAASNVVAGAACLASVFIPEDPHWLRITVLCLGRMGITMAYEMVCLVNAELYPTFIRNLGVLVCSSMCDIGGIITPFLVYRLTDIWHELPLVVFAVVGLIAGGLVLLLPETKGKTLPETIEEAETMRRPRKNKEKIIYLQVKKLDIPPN
hOCT2, sequence (O15244 whole entry): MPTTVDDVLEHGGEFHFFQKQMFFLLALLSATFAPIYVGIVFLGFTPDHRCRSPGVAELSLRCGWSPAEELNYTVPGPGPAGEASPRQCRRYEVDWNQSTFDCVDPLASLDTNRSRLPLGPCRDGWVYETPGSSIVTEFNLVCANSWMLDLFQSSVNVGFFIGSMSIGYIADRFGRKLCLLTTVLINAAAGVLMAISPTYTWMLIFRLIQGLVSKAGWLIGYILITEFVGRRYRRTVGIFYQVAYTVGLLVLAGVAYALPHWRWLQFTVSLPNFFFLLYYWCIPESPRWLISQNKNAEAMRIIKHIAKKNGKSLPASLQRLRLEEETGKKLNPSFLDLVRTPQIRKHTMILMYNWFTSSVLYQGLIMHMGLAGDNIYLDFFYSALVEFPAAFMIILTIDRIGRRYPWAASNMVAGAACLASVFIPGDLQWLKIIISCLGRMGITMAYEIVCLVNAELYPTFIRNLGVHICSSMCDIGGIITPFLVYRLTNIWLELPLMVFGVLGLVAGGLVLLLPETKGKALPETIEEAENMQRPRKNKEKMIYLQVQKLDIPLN

Compound: S=C=Nc1cccc2ccccc12 [ANIT, α-naphthyl-isothiocyanate]
- canalicular membrane integrity (GGT release) [1]: damaged
- glutathione [1]: decreased
- mitochondria [1]: disrupted
- oxidative stress [1]: increased

- basolateral to apical flux (metformin), effect of inhibitor [2]: inhibited
- cellular uptake (metformin), effect of inhibitor [2]: inhibited
- basolateral-to-apical flux (metformin), effect of inhibitor [3]: not inhibited
- cellular uptake (metformin), effect of inhibitor [3]: inhibited
Compound: CN/C(=N/CCSCc1nc[nH]c1C)NC#N [Cimetidine]

- IC50 [5]: 2.3 µM
Compound: CCC(C)n1ncn(-c2ccc(N3CCN(c4ccc(OCC5COC(Cn6cncn6)(c6ccc(Cl)cc6Cl)O5)cc4)CC3)cc2)c1=O (stereo not shown) [Itraconazole]
- IC50 [4]: 150 µM

Compound: CCc1ccc(CCOc2ccc(CC3SC(=O)NC3=O)cc2)nc1 (stereo not shown) [Pioglitazone]
- IC50 [4]: > 300 µM
- IC50 [6]: 5 µM
- Clin Cholestatic [7]: Y-reversible

Compound: CN(CCOc1ccc(CC2SC(=O)NC2=O)cc1)c1ccccn1 (stereo not shown) [Rosiglitazone]
- IC50 [4]: > 300 µM
- IC50 [6]: 8 µM

Compound: N.N.[Cl][Pt][Cl] [cisplatin]
- IC50 [8]: ~80 µM

Compound: CCc1nn(CCCN2CCN(c3cccc(Cl)c3)CC2)c(=O)n1CCOc1ccccc1 [nefazodone]
- general cell health, toxicity relative to the other non-tricyclic antidepressants ([4]; FIG. 12, comparison of three non-tricyclic antidepressants): most toxic
- IC50 [9]: < 50 µM
- BSEP [10]: inhibition
